What was measured:
miR-155 [1] = assay: miR-155 gene expression in U2932 tumor samples after in vivo treatment; set-up: species or system NSG mice; details: U2932 xenograft, intra-tumoral
Protocol: FIGS. 22A-D show in vivo gene expression and protein level analysis. (22A) miR-155 gene expression levels in U2932 tumor samples after in vivo treatment with indicated PNAs. Data was normalized with average control U6 (n=4, data represented as mean±standard error mean). ***p<0.001 (22B) Gene expression level of downstream target genes of miR-155: MCL1 in U2932 tumor samples after treatment with total 3 mg kg-1 dose of Scr-γtcPNA-155, PNA-155, γPNA-155 and γtcPNA-155 and normalized with average control GAPDH (n=3, data represented as mean±SEM), unpaired two-tailed t-test was performed for analysis). *p<0.05, **p<0.01 (22C) Representative western blot of Mcl-1 protein and its quantification (n=3 technical replicate) in U2932 tumor samples treated with total 3 mg kg-1 dose of Scr-γtcPNA-155, PNA-155 and γtcPNA-155. Data is represented as mean±SEM and unpaired two-tailed t-test was performed for analysis. *p<0.05. The relative protein levels were determined from the band intensity using ImageJ software and normalized relative to loading control and treatment control. (22D) Gene expression level of tumor suppressor proteins (FOXO3A, CUX1, SOCS1, CSF1R, JARID2, SHIP1, PICALM, PDCD4, BACH1, CASP3) in U2932 tumor samples after treatment with total 3 mg kg-1 dose of Scr-γtcPNA-155, PNA-155, γPNA-155 and γtcPNA-155 and normalized with average control GAPDH (n=3, data represented as mean±SEM, unpaired two-tailed t-test was performed for statistical analysis). *p<0.05, **p<0.01.
RNA and Protein extraction from tumor samples: The mice were injected intra-tumorally with 1 mg kg-1 dose of PNA-155, γtcPNA-155, γPNA-155, Scr-γtcPNA-155 or were untreated. The injections were repeated two additional times after 1 week each. The length, breadth, and depth of the tumors were measured daily using a vernier caliper. The mice were euthanized when the tumor volumes reached 2000 mm^3. The resected tumor sections were finely minced using a sterile blade and suspended in dissociation media (4 ml) comprising of RPMI-1640, 1.2 mg/ml dispase, and 0.5 mg/ml collagenase for 90 mins at 500 rpm at 37° C. The dissociated tumors were washed with buffer saline at 2500 rpm (4 mins) at 4° C. and then suspended in 0.25% trypsin for 4 mins at room temperature. RPMI 1640 media was added to the trypsinized tumor mass, and the cells were passed through a 70 um filter. The cells were centrifuged at 2500 rpm for 4 mins at 4° C. The cell pellet was then suspended in 1×RBC lysis buffer (Sigma) and incubated on ice for 10 mins. PBS was added to the cells and the cells were passed through a 40 um filter. The cells were centrifuged at 2500 rpm for 4 mins at 4° C. The cell pellet was resuspended in 0.5% BSA in PBS. […]

miR-155 [2] = assay: miR-155 gene expression by RT-PCR in U2932 cells; format: cell-based, human; details: U2932, 500 nM, 48 hours, relative to scrambled control
Protocol: FIGS. 3A-F show cell culture-based functional assay in U2932 lymphoma cells. (3A) γtcPNA-155-TAMRA uptake in the U2932 lymphoma cell line: Representative flow cytometry traces of TAMRA fluorescence in U2932 cells after treatment with 500 nM dose of γtcPNA-155-TAMRA for 48 hours. The data was analyzed by FlowJo software. (3B) Normalized miR-155 gene expression levels in U2932 after treatment with phosphate buffer saline (PBS) as a control and with 500 nM dose of Scr-γtcPNA-155, PNA-155, γPNA-155 and γtcPNA-155 for 48 hours compared to average control U6 (n=3), data represented as mean±standard error mean (SEM), Statistical analysis was performed using Unpaired two-tailed t-test. Further, statistical analysis was performed relative to Scr-γtcPNA-155 treated cells. ***p<0.001. (3C) Gene expression level of miR-155 downstream genes, tumor suppressor proteins (FOXO3A, CUX1, SOCS1, CSF1R, JARID2, SHIP1, PICALM, PDCD4, BACH1, WEE1, TP53TG3, CASP3, PTEN) in U2932 cell line after treatment with PBS as a control and with after treatment with 500 nM of Scr-γtcPNA-155, PNA-155, γPNA-155 and γtcPNA-155 for 48 hours. Data is normalized with average GAPDH control (n=3), and represented as mean±SEM, *p<0.05. Unpaired two-tailed t-test was used for statistical analysis and analysis was performed relative to Scr-γtcPNA-155 treated cells. (3D) Gene expression level of miR-155 downstream genes MCL1 in U2932 cell line after treatment with PBS as a control and 500 nM of Scr-γtcPNA-155, PNA-155, γPNA-155 and γtcPNA-155 for 48 hours. Data is normalized with average GAPDH control (n=3), and represented as mean±SEM, *p<0.05, **p<0.01 and ***p<0.001. […] (3E) Representative western blot of Mcl-1 and its quantification (n=3 technical replicate) and (3F) Caspase-3 protein and its quantification (n=3 technical replicate) in U2932 cell line after treatment with 500 nM of Scr-γtcPNA-155, PNA-155 and γtcPNA-155 for 48 hours. […] Numbers above western blot panels represent relative quantification of the respective bands using ImageJ software and normalized relative to loading control and treatment control. […]

[3] = test system: U2932 subcutaneous tumors; assay: Tumor growth in U2932 derived xenograft model; format: in vivo, NSG mice; details: intra-tumoral injections days 0, 7, 14
Protocol: Mouse tumor xenograft: Female NSG mice (NOD.Cg-Prkdcscid Il2rgtm1Wjl/SzJ, strain 005557) weighing 20-23 g were procured from Jackson laboratories. 1×10^7 U2932 cells suspended in RPMI-1640 medium were injected subcutaneously in the right and left flank of 6-week-old NSG mice. The mice developed a small bump in 2 weeks. When the tumor volume reached 100-200 mm^3, the mice were randomly assigned to the treatment group (n=6 per group).
RNA and Protein extraction from tumor samples: The mice were injected intra-tumorally with 1 mg kg-1 dose of PNA-155, γtcPNA-155, γPNA-155, Scr-γtcPNA-155 or were untreated. The injections were repeated two additional times after 1 week each. The length, breadth, and depth of the tumors were measured daily using a vernier caliper. The mice were euthanized when the tumor volumes reached 2000 mm^3. The resected tumor sections were finely minced using a sterile blade and suspended in dissociation media (4 ml) comprising of RPMI-1640, 1.2 mg/ml dispase, and 0.5 mg/ml collagenase for 90 mins at 500 rpm at 37° C. The dissociated tumors were washed with buffer saline at 2500 rpm (4 mins) at 4° C. and then suspended in 0.25% trypsin for 4 mins at room temperature. RPMI 1640 media was added to the trypsinized tumor mass, and the cells were passed through a 70 um filter. The cells were centrifuged at 2500 rpm for 4 mins at 4° C. The cell pellet was then suspended in 1×RBC lysis buffer (Sigma) and incubated on ice for 10 mins. PBS was added to the cells and the cells were passed through a 40 um filter. The cells were centrifuged at 2500 rpm for 4 mins at 4° C. The cell pellet was resuspended in 0.5% BSA in PBS. The mouse cells were removed from the tumor cells using a mouse cell depletion kit (Miltenyi Biotec) according to the manufacturer's protocol. The enriched tumor cells from each tumor sample were divided into two fractions. RNA for gene expression analysis was extracted from one tumor fraction by the same procedure as mentioned earlier. The protein for western blot analysis was extracted from the second fraction using the method described above.
For the efficacy study, each mouse received three intra-tumoral injections of either γtcPNA-155, γPNA-155 or PNA-155 on days 0, 7, 14. We noticed that the control and scrambled treated tumors reached 2000 mm^3 much faster during our study, so we could not inject a third time in these mice. […] In contrast, as stated earlier, there was no effect on the control and scrambled PNA control on the tumor volume.

miR-155 downstream genes = assay: Gene expression of miR-155 downstream genes by RT-PCR in U2932 cells; format: cell-based, human; details: U2932, 500 nM, 48 hours
Protocol: FIGS. 3A-F show cell culture-based functional assay in U2932 lymphoma cells. (3A) γtcPNA-155-TAMRA uptake in the U2932 lymphoma cell line: Representative flow cytometry traces of TAMRA fluorescence in U2932 cells after treatment with 500 nM dose of γtcPNA-155-TAMRA for 48 hours. The data was analyzed by FlowJo software. (3B) Normalized miR-155 gene expression levels in U2932 after treatment with phosphate buffer saline (PBS) as a control and with 500 nM dose of Scr-γtcPNA-155, PNA-155, γPNA-155 and γtcPNA-155 for 48 hours compared to average control U6 (n=3), data represented as mean±standard error mean (SEM), Statistical analysis was performed using Unpaired two-tailed t-test. Further, statistical analysis was performed relative to Scr-γtcPNA-155 treated cells. ***p<0.001. (3C) Gene expression level of miR-155 downstream genes, tumor suppressor proteins (FOXO3A, CUX1, SOCS1, CSF1R, JARID2, SHIP1, PICALM, PDCD4, BACH1, WEE1, TP53TG3, CASP3, PTEN) in U2932 cell line after treatment with PBS as a control and with after treatment with 500 nM of Scr-γtcPNA-155, PNA-155, γPNA-155 and γtcPNA-155 for 48 hours. Data is normalized with average GAPDH control (n=3), and represented as mean±SEM, *p<0.05. Unpaired two-tailed t-test was used for statistical analysis and analysis was performed relative to Scr-γtcPNA-155 treated cells. (3D) Gene expression level of miR-155 downstream genes MCL1 in U2932 cell line after treatment with PBS as a control and 500 nM of Scr-γtcPNA-155, PNA-155, γPNA-155 and γtcPNA-155 for 48 hours. Data is normalized with average GAPDH control (n=3), and represented as mean±SEM, *p<0.05, **p<0.01 and ***p<0.001. Statistical analysis was performed using Unpaired two-tailed t-test. Analysis was performed relative to Scr-γtcPNA-155 treated cells. (3E) Representative western blot of Mcl-1 and its quantification (n=3 technical replicate) and (3F) Caspase-3 protein and its quantification (n=3 technical replicate) in U2932 cell line after treatment with 500 nM of Scr-γtcPNA-155, PNA-155 and γtcPNA-155 for 48 hours. Data is represented as mean±SEM and unpaired two-tailed t-test was used for statistical analysis. *p<0.05 **p<0.01. Numbers above western blot panels represent relative quantification of the respective bands using ImageJ software and normalized relative to loading control and treatment control.
Gene expression by RT-PCR: 400,000 U2932 cells were seeded in a 12 well plate. The cells were treated with 500 nM PNA-155, gamma tcPNA-155, gamma PNA-155, Scr gamma tcPNA-155 or were PBS treated (control) for 48 hrs in an incubator (37° C. and 5% CO2). The cells were centrifuged at 2000 rpm for 4 mins at 4° C. The total RNA from the cell pellet was extracted using RNeasy® mini kit (Qiagen). The cDNA was prepared in thermal cycler (Bio-rad) using reverse transcriptase, RNase inhibitor, dNTPs, nuclease-free water and RT primers specific for miR-155 and U6. Random primers were used for the preparation of cDNA for downstream targets. The cDNA was amplified using miR-155 assay, U6 assay, or specific downstream target assays in CFX Connect™ Real-time PCR detection system (Bio-rad). The samples were subjected to polymerase activation (95° C. for 10 mins), followed by 40 cycles of denaturation (95° C. for 15 sec) and annealing (60° C. for 1 min). The 2^−ΔΔCT method was used to calculate the fold change in target genes.

## γPNA-155: single-stranded full-length serine gamma PNA binding miR-155 by Watson-Crick pairing, SEQ ID NO: 1 (ACCCCTATCACGATTAGCATTAA; all peptide nucleic acid (PNA); serine gamma-PNA, two arginine residues (X1 RR) at each terminus, further chemistry not fully specified)
miR-155 [1]
  decrease in miR-155 gene expression in tumors: 80%
miR-155 [2]
  miR-155 inhibition: ~83%
[3]
  tumor growth / tumor volume: reduced the tumor growth
miR-155 downstream genes
  de-repression of miR-155 target tumor suppressor genes: significant de-repression
  reduction in MCL1 gene expression levels: 19%
